SMILES strings stand for the structures. Like-named read-outs stand apart in the source and are kept apart here.

The results in this text go back to patent publication US20190337971A1, “PANTETHEINE DERIVATIVES FOR THE TREATMENT OF NEUROLOGIC DISORDERS” (Retrophin, Inc., priority 2016, published 2019).

One data set relates to PANK2−/− IMR32 cells. Description: Coenzyme A assay in PANK2 silenced cells (LC-MS quantification of free CoA). The data set is classed as cell-based, human. Particulars: Homo sapiens, IMR-32, fold increase in CoA levels relative to controls, treated twice, 24 h + 24 h; for fold induction at 50 µM: compound concentration 50 uM. The protocol: A human neuroblastoma IMR32 cell line (ATCC) with stably PANK2 silencing was obtained by lentiviral-delivered small hairpin RNA and cultured in MEM (Invitrogen) supplemented with 10% fetal bovine serum, 2 mM glutamine, 1% penicillin-streptomycin, 1 mM sodium pyruvate, 1 mM non-essential amino acids, and 1.5 g/l sodium bicarbonate.
A non-silencing shRNA construct (scrambled shRNA) and an empty vector expressing GFP alone were used as negative controls. The GFP tag subcloned into the lentiviral vectors was used to monitor the transfection efficiency.
Three days after transduction medium was removed and replaced with fresh medium containing […] puromycin. […] The level of PANK2 expression in selected clones was assessed by Western Blot analysis.
To quantify CoA, PANK2−/− IMR32 cells were plated on 12-well culture plates (Corning) at a density of 0.2×10^6 cells per well. […] Controls with medium containing 0.1% DMSO without test compounds were also included in each plate. […] Before LC-MS analysis of CoA levels, cells were harvested, counted, and collected in a 15 ml falcon tube and centrifuged at 200×g for 5 min at 4° C. Supernatant was removed and cell pellet was washed in 10 ml of ice-cold PBS. To further confirm that the numbers of cells in each sample were equivalent, an equal fraction of pellet was collected from each sample and subjected to protein determination analysis. After centrifugation and supernatant removal, the cell pellet was rapidly frozen in Liquid Nitrogen and stored at −80° C. until analysis.
Intracellular CoA levels were calculated considering an intracellular volume of 1 million cells=2 μl.
The 1*10^6 cellular pellet was extracted with 120 μl of aqueous 20% TFA.
100 μL samples of supernatant were dried under N2 at 20° C. in the dark.
Samples were re-dissolved in 100 μl of 10 mM NH4^+ AcO^− buffer pH 5.1+IS (Dextrorphan 50 ng/ml), stirred for 2 min, sonicated in ultrasonic bath for 1 min, then stirred again for 1 min, and injected into LC-MS.
LC-MS/MS was performed using an Agilent HPLC (1100 Series, USA). The LC system was interfaced with an API-4000 Q-Trap triple quadrupole mass spectrometer (AB Sciex, Toronto, Canada) equipped with a TurboIonSpray ionization source operating in positive ion mode. Analyst™ software version 1.6 (AB Sciex, Toronto, Canada) was used for data acquisition and processing. CoA was separated using a Luna C18 column (2.0×50 mm; 5 μm particle size), column at 25° C. and flow rate of 0.2 ml/min. Injection volume was 15 μl. The mobile phases consisted of water containing 10 mM ammonium acetate pH 7 (mobile phase A) and MeCN-2-propanol 9:1 (mobile phase B).
Results are expressed as fold increase in CoA levels relative to controls (using LC-MS quantification of free CoA).

The nature of data set [1]: Stability in human whole blood. The data set is classed as in vitro ADME. Particulars: 37° C., up to 60 min. The protocol:
The stability of selected compounds in human whole blood was evaluated according to the following protocol. Compounds and positive control samples were dissolved in 100% DMSO at 3 mM (stock solution). To investigate the stability of the test compounds in whole blood, a 200 μM working solution (WS) in water has been prepared by adding 66.66 μl of each 3 mM stock solution to 933.34 μl of water (6.66% DMSO content). After pre-incubation of the whole blood at 37° C. for 5 min in an eppendorf, 10.5 μl of each working solution were spiked into 689.5 μl of heated blood. The obtained 3 μM solution in blood (0.1% DMSO content) was quickly stirred and 100 μl for each time point were transferred to an eppendorf. Each compound was tested in duplicate at five time points (10, 20, 30, 40 and 60 min). At each time point, the reaction was stopped by quenching the spiked blood (100 μl) with 400 μl of 100% acetonitrile containing 0.1% formic acid. Then samples were centrifuged at 15600 rpm for 15 min at +4° C. and 200 μl of supernatant were transferred to a 96-deepwell plate. Samples were evaporated under N2 and reconstituted in H2O/ACN 0.1% formic Acid (98/2 v/v) containing the appropriate internal standard. Analysis was performed without a calibration curve by using an Acquity-UPLC (Waters) coupled to a triple quadrupole mass spectrometer (SciexAPI4000). Time point 0 was obtained by adding 3 μL of each 200 μM working solution to 997 μL of the supernatant obtaining after centrifugation (15600 rpm for 15 min at +4° C.) of the blank matrix quenched with acetonitrile containing 0.1% formic acid.
Stability was determined based on analysis of disappearance of the compounds as a function of incubation time. Quantification of test compounds was measured as a peak area relative to an internal standard. The elimination constant k and half-life (t1/2) were determined as described above in Example 7.

[2] abbreviates: Diastereoisomer A (upfield shift in 31P NMR), read-out: t1/2 (h) Human Whole Blood Diastereoisomer A (converted).
The mark [3] stands for this setting: Diastereoisomer B, read-out: t1/2 (h) Human Whole Blood Diastereoisomer B (converted).

Broadly, the fold induction is the signal under treatment as a multiple of the control signal. On to `CC(=O)SCCNC(=O)CCNC(=O)[C@@H]1OP(=O)(OCOC(=O)c2ccnn2C)OCC1(C)C` (stereo partly drawn) [R1011, (((4R)-4-((3-((2-(acetylthio)ethyl)amino)-3-oxopropyl)carbamoyl)-5,5-dimethyl-2-oxido-1,3,2-dioxaphosphinan-2-yl)oxy)methyl 1-methyl-1H-pyrazole-5-carboxylate], for which the fold induction at 50 µM in the data set with PANK2−/− IMR32 cells came out at 102. The half-life at 3 μM is 0.42 h in data set [1] (setting [2]) and under 0.16 h in data set [1] (setting [3]).
For the molecule `CC(=O)SCCNC(=O)CCNC(=O)[C@@H]1OP(=O)(OCOC(=O)NC(C)(C)COC(=O)[C@@H](N)C(C)C)OCC1(C)C` (stereo partly drawn) [R1012, 2-((((((4R)-4-((3-((2-(acetylthio)ethyl)amino)-3-oxopropyl)carbamoyl)-5,5-dimethyl-2-oxido-1,3,2-dioxaphosphinan-2-yl)oxy)methoxy)carbonyl)amino)-2-methylpropyl L-valinate], in the data set with PANK2−/− IMR32 cells, the fold induction at 50 µM came to 1.5. The half-life at 3 μM in data set [1] (setting [2]) was 0.41 h.
For the molecule `CC(=O)SCCNC(=O)CCNC(=O)[C@@H]1OP(=O)(OCOC(=O)N[C@@H](CSC(=O)C(C)(C)C)C(=O)O)OCC1(C)C` (stereo partly drawn) [R1013, N-(((((4R)-4-((3-((2-(acetylthio)ethyl)amino)-3-oxopropyl)carbamoyl)-5,5-dimethyl-2-oxido-1,3,2-dioxaphosphinan-2-yl)oxy)methoxy)carbonyl)-S-pivaloyl-L-cysteine], in the data set on PANK2−/− IMR32 cells, the fold induction at 50 µM worked out at 1. In addition, the half-life at 3 μM is 0.78 h in data set [1] (setting [2]) and 0.6 h in data set [1] (setting [3]).
On to `COC(=O)[C@@H](N[P@]1(=O)OCC(C)(C)[C@H](C(=O)NCCC(=O)NCCSC(C)=O)O1)C(C)C` [R1015, methyl ((2S,4R)-4-((3-((2-(acetylthio)ethyl)amino)-3-oxopropyl)carbamoyl)-5,5-dimethyl-2-oxido-1,3,2-dioxaphosphinan-2-yl)-L-valinate], for which the fold induction at 50 µM with PANK2−/− IMR32 cells is 2.1. The half-life at 3 μM in data set [1] (setting [3]) was over 1 h.
Turning to `CC(=O)SCCNC(=O)CCNC(=O)[C@@H]1O[P@](=O)(OCOC(=O)c2cc(C(C)(C)C)n[nH]2)OCC1(C)C` [R1019, (((2R,4R)-4-((3-((2-(acetylthio)ethyl)amino)-3-oxopropyl)carbamoyl)-5,5-dimethyl-2-oxido-1,3,2-dioxaphosphinan-2-yl)oxy)methyl 3-(tert-butyl)-1H-pyrazole-5-carboxylate], the fold induction at 1 µM in the data set with PANK2−/− IMR32 cells (compound concentration 1 uM) was 28.8. Further, the half-life at 3 μM in data set [1] (setting [3]) was under 0.16 h.
For the molecule `COC(=O)[C@H](CSC(=O)C(C)(C)C)NC(=O)OCOP1(=O)OCC(C)(C)[C@H](C(=O)NCCC(=O)NCCSC(C)=O)O1` (stereo partly drawn) [R1020, methyl N-(((((4R)-4-((3-((2-(acetylthio)ethyl)amino)-3-oxopropyl)carbamoyl)-5,5-dimethyl-2-oxido-1,3,2-dioxaphosphinan-2-yl)oxy)methoxy)carbonyl)-S-pivaloyl-L-cysteinate], the fold induction at 50 µM in the data set with PANK2−/− IMR32 cells turned out to be 74.2. Moreover, the half-life at 3 μM in data set [1] (setting [2]) is 0.65 h.
For the molecule `CC(=O)SCCNC(=O)CCNC(=O)[C@@H]1OP(=O)(OCOC(=O)NCCSC(=O)[C@@H](N)C(C)C)OCC1(C)C` (stereo partly drawn) [R1021, S-(2-((((((4R)-4-((3-((2-(acetylthio)ethyl)amino)-3-oxopropyl)carbamoyl)-5,5-dimethyl-2-oxido-1,3,2-dioxaphosphinan-2-yl)oxy)methoxy)carbonyl)amino)ethyl) (2S)-2-amino-3-methylbutanethioate], the fold induction at 50 µM with PANK2−/− IMR32 cells stood at 3.7. Also, the half-life at 3 μM in data set [1] (setting [2]) is 0.32 h.
Consider `CC(=O)OCOP1(=O)OCC(C)(C)[C@H](C(=O)NCCC(=O)NCCSC(C)=O)O1` (stereo partly drawn) [R1022, (((4R)-4-((3-((2-(acetylthio)ethyl)amino)-3-oxopropyl)carbamoyl)-5,5-dimethyl-2-oxido-1,3,2-dioxaphosphinan-2-yl)oxy)methyl acetate], for which, in the data set on PANK2−/− IMR32 cells, the fold induction at 50 µM came to 114. Further, the half-life at 3 μM in data set [1] (setting [2]) and in data set [1] (setting [3]) was under 0.16 h throughout.
